The source of these data is US4267331A, “Process for the production of 2-substituted pyrido[4,3-b]-indoles” (Pfizer Inc., priority 1980, dated 1981).

In the experiment the test system is amphetamine-induced symptoms (cage movement behavior after d-amphetamine sulfate). The experiment can be described thus: Antagonism of amphetamine stereotypy in rats. It counts as in vivo. Particulars: Rattus norvegicus, sc, Part A. From the text:
The tranquilizing agents of the present invention are characterized by relief of such schizophrenic manifestations in humans as hallucinations, hostility, suspiciousness, emotional or social withdrawal, anxiety, agitation and tension. A standard procedure of detecting and comparing tranquilizing activity of compounds in this series and for which there is an excellent correlation with human efficacy is the antagonism of amphetamine-induced symptoms in rat tests, as taught by A. Weissman, et al., J. Pharmacol. Exp. Ther., 151, 339 (1966) and by Quinton, et al., Nature, 200, 178, (1963).
Antagonism of Amphetamine Stereotypy in Rats Test Procedures and Results
The effects of the compounds of the present invention on prominent amphetamine-induced symptoms were studied in rats by a rating scale modeled after the one reported by Quinton and Halliwell, and Weissman. Groups of five rats were placed in a covered plastic cage measuring approximately 26 cm.×42 cm.×16 cm. After a brief period of acclimation in the cage, the rats in each group were treated subcutaneously (s.c.) with the test compound. They were then treated 1, 5 and 24 hrs. later with d-amphetamine sulfate, 5 mg./kg. intraperitoneally (i.p.). […] On the basis of dose-response data after amphetamine it was possible to determine the effective dose of the compound necessary to antagonize or block the characteristic amphetamine behavior of cage movement for fifty percent of the rats tested (ED50). The time of rating chosen coincides with the peak action of amphetamine which is 60-80 min. after treatment with this agent.
Employing the above-described procedure, the following 4a,9b-trans compounds were tested for their ability to block the behavior effects of amphetamine, the results being reported as the ED50 in mg./kg. at the indicated times: [drawing 33]

Where two headings read alike, the source gives them in different places.

As to `COc1ccc(C(O)CCCN2CCC3C(C2)c2cc(F)ccc2N3c2ccc(F)cc2)cc1` (stereo not drawn), the ED50 reads like this: (1 h, s.c. per method b367, 1 Hr., read-out: ED50 (mg./kg.) 1 Hr., antagonism of amphetamine stereotypy) 0.1 to 0.32 mg/kg; (5 h, s.c. per method b367, 5 Hr., read-out: ED50 (mg./kg.) 5 Hr., antagonism of amphetamine stereotypy) below 0.1 mg/kg; (24 h, s.c. per method b367, 24 Hrs., read-out: ED50 (mg./kg.) 24 Hrs., antagonism of amphetamine stereotypy) below 0.32 mg/kg.
